20 compounds from ChEMBL document CHEMBL1150408, “Synthesis, induced-fit docking investigations, and in vitro aldose reductase inhibitory activity of non-carboxylic acid containing 2,4-thiazolidinedione derivatives” (Bioorg Med Chem, 2008) can be followed below.

SMILES strings stand for the structures.

The target in the first data set is Aldo-keto reductase family 1 member B1 (Bos taurus) (UniProt P16116). The data set can be described thus: Inhibition of bovine lens ALR2 at 25 uM assessed as reduction of D,L-glyceraldehyde by spectrophotometry. As to conditions: Lens of camera-type eye.
In the case of `O=C(CN1C(=O)S/C(=C\c2ccc3ccccc3c2)C1=O)NO`, the inhibition (commonly how much of the control response was suppressed) turned out to be 39%.

Another data set shares this target. The data set can be described thus: Inhibition of bovine lens ALR2 at 12.5 uM assessed as reduction of D,L-glyceraldehyde by spectrophotometry. As to conditions: Lens of camera-type eye. It counts as tissue-based.
Take `NC(=O)CN1C(=O)S/C(=C\c2cccc3ccccc23)C1=O`: the inhibition was 32%.
Take `NC(=O)CN1C(=O)S/C(=C\c2ccc(Oc3ccccc3)cc2)C1=O`: the inhibition was 0%.
In the case of `COc1ccc(/C=C2\SC(=O)N(CC(N)=O)C2=O)cc1`, the inhibition came to 0%.
Same read-out and setting: as for `NC(=O)CN1C(=O)S/C(=C\c2cccc(O)c2)C1=O`, the figure is 16%.
On the same count and under the same terms, for `COc1ccc(/C=C2\SC(=O)N(CC(N)=O)C2=O)cc1O` the value was 0%.
For `COc1cc(/C=C2\SC(=O)N(CC(N)=O)C2=O)ccc1O`, the inhibition came to 31%.
With `NC(=O)CN1C(=O)S/C(=C\c2ccc3ccccc3c2)C1=O`, the inhibition turned out to be 3%.
On the same count and under the same terms, for `NC(=O)CN1C(=O)S/C(=C\c2ccc(-c3ccccc3)cc2)C1=O` the value was 18%; for `NC(=O)CN1C(=O)S/C(=C\c2cccc(Oc3ccccc3)c2)C1=O`, 8%.
With `COc1cccc(/C=C2\SC(=O)N(CC(N)=O)C2=O)c1`, the inhibition was found to be 10%.

A further data set has as its target Aldose reductase (Bos taurus). Nature of the data set: Inhibition of ALR2.
Conditions: not given
Take `O=C(O)CN1C(=O)S/C(=C\c2ccc(O)cc2)C1=O`: the midpoint of inhibition, the IC50, lay at 0.15 µM.

For a further data set, the target named is Aldo-keto reductase family 1 member B1 (Bos taurus, UniProt P16116). Nature of the data set: Inhibition of bovine lens ALR2 assessed as reduction of D,L-glyceraldehyde by spectrophotometry. More on the design: species or system Lens of camera-type eye.
Conditions: not given
For the compound `NC(=O)CN1C(=O)S/C(=C\c2ccc(O)cc2)C1=O`, the half-maximal inhibitory concentration (IC50) (usually the concentration that gives 50% inhibition) was determined as 6.52 µM.
On to `O=C(CN1C(=O)S/C(=C\c2ccc(Oc3ccccc3)cc2)C1=O)NO`, for which the half-maximal inhibitory concentration (IC50) is 3.67 µM.
For the compound `O=C(CN1C(=O)S/C(=C\c2ccc(OCc3ccccc3)cc2)C1=O)NO`, the half-maximal inhibitory concentration (IC50) amounted to 7.34 µM.
For `O=C(CN1C(=O)S/C(=C\c2cccc(Oc3ccccc3)c2)C1=O)NO`, the IC50 turned out to be 12.7 µM.
On the same count and under the same terms, for `O=C(CN1C(=O)S/C(=C\c2ccc(-c3ccccc3)cc2)C1=O)NO` the value was 20.3 µM.
As for `O=C(CN1C(=O)S/C(=C\c2ccc(O)cc2)C1=O)NO`, the IC50 is 1.79 µM.
Still for that read-out and setting: as for `O=C(CN1C(=O)S/C(=C\c2cccc3ccccc23)C1=O)NO`, the figure is 4.2 µM.

Tested on in another data set: not listed separately
Nature of the data set: Dissociation constant, pKa of the compound. It counts as physicochemical.
Conditions: not given
Consider `O=C1NC(=O)[C@@]2(CCOc3ccc(F)cc32)N1` [SORBINIL], for which the pKa – broadly, the negative logarithm of the acid dissociation constant – amounted to 8.
